In patent EP0007019A1, “5-Phenyl-pyrazole derivatives and their salts, processes for their preparation and medicines containing them” (Kali-Chemie Pharma GmbH, priority 1978, dated 1980):
Like-named read-outs stand apart in the source and are kept apart here.

Legend:
Format in all cases: in vivo
NMRI-Maus = test: Acute 7-day toxicity after a single administration (LD50, probit analysis); conditions: for Toxizität: statement in words, test not specified
Source text: (§1) Die akute 7-Tage-Toxizität wurde nach einmaliger Applikation an der weißen, nüchternen NMRI-Maus bestimmt.

Versuchstieren = test: PCA test (passive cutaneous anaphylaxis reaction), peroral
Source text: Die neuen Verbindungen eignen sich insbesondere aufgrund ihrer oralen antianaphylaktischen Wirksamkeit zur Behandlung von allergischen Reaktionen.

[1] = tested on: Sprague-Dawley-Ratten mit diätetischer Hyperlipidämie; test: Lipid-lowering effect in rats with dietary hyperlipidaemia, 4 weeks p.o., compared with Clofibrat; liver weight; conditions: for Serum Gesamt-Cholesterin / Serum Triglyceride / Lebergewicht: 4 Wochen; for Serum Gesamt-Cholesterin: 20 animals per group, Kontrolle 15,2 ± 2,4; for Serum Triglyceride: Kontrolle 1,04 ± 0,34; for Lebergewicht: Kontrolle 7,3 ± 0,7
Procedure: Die Testsubstanz wurde über einen Zeitraum von 4 Wochen in Dosierungen von 100 und 200 mg/kg Körpergewicht p.o. täglich per Magensonde in 10 ml einer 1%-igen Traganth-Lösung verabreicht. Clofibrat wurde entsprechend in Dosierungen von 100 und 200 mg/kg gegeben. Die Kontrolltiere erhielten 10 ml der Trägerflüssigkeit Traganth/kg Körpergewicht per Magensonde.
Jede Gruppe bestand aus 20 Tieren; das Gewicht der Leber wurde festgestellt und verglichen.
Die Blutentnahme erfolgte im Ätherrausch aus dem retrobulbären Venenplexus.
Ausgeführt wurden Varianzanalyse und Student-t-Test. Als Signifikanzgrenze diente p≤0,01.

[2] = Acute 7-day toxicity after a single administration (LD50, probit analysis); conditions: in vivo, single administration, fasted NMRI mouse, 7 days
Source text: as §1

unbehandelten Ratte = test: Determination of triglyceride lowering in the untreated rat over 4 days; conditions: po, 96 h, 200 mg/kg per Magensonde, 4 Tage, serum triglycerides, percent versus control, 10 animals per group, read-out: Triglyceridsenkung in %
Procedure: Die Verbindungen wurden auf triglyceridsenkende Eigenschaften an der unbehandelten Ratte über einen Zeitraum von 4 Tagen untersucht. Die Substanzen wurden in der Dosierung von 200 mg/kg per Magensonde in 5 ml 1%-iger Traganth-Lösung appliziert. Die Blutentnahme erfolgte im Ätherrausch aus dem retrobulbären Venenplexus. Die Serumtriglyceride wurden nach Eggstein und Kreutz (Klin. Wschr. 44, 262 (1966)) bestimmt. Jede Gruppe bestand aus 10 Tieren. Die statistische Prüfung erfolgte nach dem Student-t-Test. Als Signifikanzgrenze diente p ≤0,01.
Die Triglyceridsenkung durch die untersuchten Substanzen in Prozent gegenüber der Kontrolle ist der Tabelle 2 zu entnehmen.

[3] = 100 mg/kg p.o. täglich, mean ± spread

Compound: 1,5-Diphenyl-3-(2-äthoxycarbonylpropyl-2-oxy)-pyrazol [Beispiel 1]
- LD50 i.p. (NMRI-Maus; i.p., single administration, fasted NMRI mouse, 7 days): 684 mg/kg
- LD50 p.o. (NMRI-Maus; p.o., single administration, fasted NMRI mouse, 7 days): >1470 mg/kg

Compound: CC(C)(Oc1cc(-c2ccc(Cl)cc2)[nH]n1)C(=O)O [5-(4-Chlorphenyl)-3-(2-hydroxycarbonylpropyl-2-oxy)-pyrazol]
- perorale antianaphylaktische Wirksamkeit (Versuchstieren): ausgeprägte perorale antianaphylaktische Wirksamkeit
- Toxizität (NMRI-Maus): geringer Toxizität

Compound: CC(C)(Oc1cc(-c2ccccc2)[nH]n1)C(=O)O [5-Phenyl-3-(2-hydroxycarbonylpropyl-2-oxy)-pyrazol]
- perorale antianaphylaktische Wirksamkeit (Versuchstieren): ausgeprägte perorale antianaphylaktische Wirksamkeit
- Toxizität (NMRI-Maus): geringer Toxizität

Compound: CCOC(=O)C(C)(C)Oc1ccc(Cl)cc1 [Clofibrat, a-(p-Chlorphenoxy)-a-methyl-propionsäureäthylester, reference compound]
- Serum Gesamt-Cholesterin [1, 3]: 6,9 ± 2,1 mmol/l
- Serum Triglyceride ([1]; 100 mg/kg p.o. täglich): 0,90 ± 0,16 mmol/l
- Lebergewicht ([1]; 100 mg/kg p.o. täglich): 8,2 ± 0,9 g/100 g
- Serum Gesamt-Cholesterin ([1]; 200 mg/kg p.o. täglich): 5,9 ± 1,7 mmol/l
- Serum Triglyceride ([1]; 200 mg/kg p.o. täglich): 0,86 ± 0,66 mmol/l
- Lebergewicht ([1]; 200 mg/kg p.o. täglich): 8,2 ± 0,7 g/100 g
- LD50 at 168 h ([2]; ip, read-out: LD50 i.p.): 566 mg/kg
- LD50 at 168 h ([2]; po, read-out: LD50 p.o.): > 1470 mg/kg

Compound: CC(C)(Oc1cc(-c2ccccc2)n(-c2ccccc2)n1)C(N)=O [Substanz A, 1,5-Diphenyl-3-(2-aminocarbonylpropyl-2-oxy)-pyrazol]
- Serum Gesamt-Cholesterin [1, 3]: 6,8 ± 2,4 mmol/l
- Serum Triglyceride ([1]; 100 mg/kg p.o. täglich): 0,83 ± 0,20 mmol/l
- Lebergewicht ([1]; 100 mg/kg p.o. täglich): 7,2 ± 0,6 g/100 g
- Serum Gesamt-Cholesterin ([1]; 200 mg/kg p.o. täglich): 5,5 ± 1,4 mmol/l
- Serum Triglyceride ([1]; 200 mg/kg p.o. täglich): 0,70 ± 0,16 mmol/l
- Lebergewicht ([1]; 200 mg/kg p.o. täglich): 7,4 ± 0,7 g/100 g
- Veränderungen der Leber (Zunahme des Lebergewichtes, Leberzellvergrößerung) ([1]; 4 Wochen p.o., 100 and 200 mg/kg): keinerlei Veränderungen der Leber
- LD50 at 168 h ([2]; ip, read-out: LD50 i.p.): 571 mg/kg
- LD50 at 168 h ([2]; po, read-out: LD50 p.o.): > 1470 mg/kg

Compound: CC(C)(Oc1cc(-c2ccccc2)[nH]n1)C(N)=O [Substanz Nr. 1, 5-Phenyl-3-(2-aminocarbonylpropyl-2-oxy)-pyrazol]
- inhibition in vivo at 200 mg/kg (unbehandelten Ratte): 15%

Compound: CC(C)(Oc1cc(-c2ccc(Cl)cc2)n(-c2ccccc2)n1)C(N)=O [Substanz Nr. 2, 1-Phenyl-5-(4-chlorphenyl)-3-(2-aminocarbonyl-propyl-2-oxy)-pyrazol]
- inhibition in vivo at 200 mg/kg (unbehandelten Ratte): 20%
- LD50 at 168 h ([2]; ip, read-out: LD50 i.p.): > 100 mg/kg
- LD50 at 168 h ([2]; po, read-out: LD50 p.o.): > 1470 mg/kg

Compound: CC(C)(Oc1cc(-c2cccc(Cl)c2)n(-c2ccccc2)n1)C(N)=O [Substanz Nr. 3, 1-Phenyl-5-(3-chlorphenyl)-3-(2-aminocarbonyl-propyl-2-oxy)-pyrazol]
- inhibition in vivo at 200 mg/kg (unbehandelten Ratte): 30%

Compound: CC(C)(Oc1cc(-c2ccc(Cl)cc2)[nH]n1)C(N)=O [Substanz Nr. 4, 5-(4-Chlorphenyl)-3-(2-aminocarbonylpropyl-2-oxy)-pyrazol]
- inhibition in vivo at 200 mg/kg (unbehandelten Ratte): 15%

Compound: CC(C)(Oc1cc(-c2ccc(Cl)cc2)n(Cc2ccccc2)n1)C(N)=O [Substanz Nr. 5, 1-Benzyl-5-(4-chlorphenyl)-3-(2-aminocarbonyl-propyl-2-oxy)-pyrazol]
- inhibition in vivo at 200 mg/kg (unbehandelten Ratte): 15%

Compound: CCOC(=O)C(C)(C)Oc1cc(-c2ccc(Cl)cc2)n(-c2ccccc2)n1 [Substanz Nr. 6, 1-Phenyl-5-(4-chlorphenyl)-3-(2-äthoxycarbonyl-propyl-2-oxy)-pyrazol]
- inhibition in vivo at 200 mg/kg (unbehandelten Ratte): 20%

Compound: CCOC(=O)C(C)(C)Oc1cc(-c2ccccc2)[nH]n1 [Substanz Nr. 7, 5-Phenyl-3-(2-äthoxycarbonylpropyl-2-oxy)-pyrazol]
- inhibition in vivo at 200 mg/kg (unbehandelten Ratte): 25%

Compound: CC(C)(Oc1cc(-c2ccccc2)n(-c2ccccc2)n1)C(=O)O [Substanz Nr. 8, 1,5-Diphenyl-3-(2-hydroxycarbonylpropyl-2-oxy)-pyrazol]
- inhibition in vivo at 200 mg/kg (unbehandelten Ratte): 30%
